Measured values from PubChem BioAssay AID1417 (Emory University Molecular Libraries Screening Center, 2008).

Target: Induced myeloid leukemia cell differentiation protein Mcl-1 (Homo sapiens) (UniProt Q07820)
Test: Mcl-1/Noxa binding inhibitor potency, dose response, biochemical, TR-FRET (AID 1417)
Conditions: Mcl-1/Noxa peptide interaction, cell-free TR-FRET (terbium/rhodamine), 2 h; measured here: absolute IC50

Chain of Induced myeloid leukemia cell differentiation protein Mcl-1 (Homo sapiens) (Q07820 whole entry, looked up): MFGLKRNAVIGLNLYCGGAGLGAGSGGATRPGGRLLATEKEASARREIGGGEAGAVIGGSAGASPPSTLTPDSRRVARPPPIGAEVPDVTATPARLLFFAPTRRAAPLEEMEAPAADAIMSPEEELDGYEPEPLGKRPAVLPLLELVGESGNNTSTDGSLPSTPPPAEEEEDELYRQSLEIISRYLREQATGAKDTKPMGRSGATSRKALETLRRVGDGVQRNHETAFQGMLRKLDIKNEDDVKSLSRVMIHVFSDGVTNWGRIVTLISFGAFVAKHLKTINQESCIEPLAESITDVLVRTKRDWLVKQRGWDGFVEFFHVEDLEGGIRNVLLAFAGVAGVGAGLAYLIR

Structure (SMILES) | IC50 [µM]
CS(=O)(=O)c1ccc(C(=O)NCCN2C(=O)S/C(=C\c3cccnc3)C2=O)cc1[N+](=O)[O-] | 3.15
CN1CCN(c2ccc([N+](=O)[O-])cc2/C=N/NC(=O)c2cccc([N+](=O)[O-])c2)CC1 | 1.42
Nc1ccc2nc(-c3ccc(Cl)cc3)[nH]c2c1 | 30.5
O=C(O)c1ccccc1N/N=C/c1cc(Br)cc(Br)c1O | 7.51
CCN(CC)c1ccc(NC2=C(Cl)C(=O)c3ccccc3C2=O)cc1 | < 0.4
Cc1[nH]c2ccccc2c1/C=C/c1nc2ccccc2c(=O)[nH]1 | 6.26
O=C(COC(=O)c1cc(-c2ccco2)nc2ccccc12)NCc1ccc2c(c1)OCO2 | 29.4
O=C1NC(=S)N(c2ccc(F)cc2)C(=O)/C1=C\c1ccoc1 | < 0.4
CCOC(=O)CSc1nc(N)c(C(=O)Nc2ccc(N(C)C)cc2)s1 | 0.523
COc1ccc2nc(-n3c(O)c(C4=c5ccccc5=NC4=O)[nH]c3=S)sc2c1 | < 0.4
O=C(CCO)c1ccc(O)cc1 | 3.19
Cc1cc(NC(=O)Cc2cccs2)no1 | < 0.4
O=S(=O)(c1ccc2nc(-c3ccco3)c(-c3ccco3)nc2c1)N1CCOCC1 | 8.41
O=C(CNc1ccc2ccccc2c1)N/N=C/C=C/c1cccc([N+](=O)[O-])c1 | 7.27
O=C(NCc1ccco1)c1c2c(nc3ccccc13)CCC2 | 3.96
Cc1c(C(=O)N/N=C/c2ccc(-c3ccccc3[N+](=O)[O-])o2)sc(N)c1C#N | 1.69
CC(=O)Oc1ccc(NC(=O)CSc2ccccc2)cc1 | > 54
O=C(O)CCCCCN1C(=O)/C(=C\c2ccc(-c3ccc(Cl)cc3)o2)SC1=S | 1.36
O=C(O)CSc1cc(C(=O)c2ccccc2O)cn2c(=O)c3c(-c4ccccc4)csc3nc12 | 5.71
O=C(CSc1cccc[n+]1[O-])Nc1cc2c(cc1Cl)C(=O)c1ccccc1C2=O | 3.74
CC(C)CC1NC(=O)N(CC(=O)c2ccc3c(c2)OCCO3)C1=O (stereo unspecified) | > 54
O=C(O)c1ccc(Nc2nc(-c3cc4ccccc4oc3=O)cs2)cc1O | 5.36

Structure (SMILES) | IC50 [µM]
COc1ccc(N2CCC(CNC(=O)Nc3ccc(Cl)cc3)C2)cc1 (stereo unspecified) | 51.7
COc1cc(/C=C2\CC/C(=C\c3cc(OC)c(O)c(OC)c3)C2=O)cc(OC)c1O | < 0.4
COc1ccc(N2Cc3cccc(C(=O)N4CCN(C(=O)c5ccco5)CC4)c3C2=O)cc1 | 1.77
COc1cc(/C=C2\SC(=S)N(CC(=O)Nc3ccc(O)cc3)C2=O)cc(OC)c1OC | < 0.4
O=C(Nc1ccc(N2CCCC2)cc1)c1ccc(Br)o1 | 1.06
CN(C)c1ccc(NC(=O)/C=C/c2ccccc2Cl)cc1 | < 0.4
COc1cc(C(=O)Nc2ccc(N(C)C)cc2)cc(OC)c1OC | > 54
CC(/C=C/c1ccco1)=N\NC(=O)c1cc(C)[nH]n1 | 5.64
COc1ccc(CCNC(=O)c2ccc3nc(-c4ccco4)c(-c4ccco4)nc3c2)cc1OC | 4.47
CCCOc1ccc(Cc2nn3c(=O)/c(=C/c4ccco4)sc3nc2=O)cc1 | > 54
O=C(Cn1c(=O)n(-c2ccccc2)c(=O)c2sccc21)N1CCCC1 | > 54
CCN(c1ccc(NC(=O)COC(=O)c2cccs2)cc1)C(C)C | > 54
COc1cc(NS(=O)(=O)c2ccc(NC(=S)NC(=O)c3sc4cc(F)ccc4c3Cl)cc2)nc(OC)n1 | > 54
COc1ccc(N2C(=O)C3CCCN3C2=O)cc1 (stereo unspecified) | > 54
COc1ccc(NC(=O)c2ccccc2N(Cc2ccccc2)S(C)(=O)=O)cc1 | > 54
COC(=O)C1=C(C(=O)OC)C(c2cc(Cl)ccc2O)c2sc(=O)[nH]c2S1 (stereo unspecified) | 3.35
COc1ccc(C2=CC(=O)C=CC2=O)cc1 | < 0.4
CCOC(=O)c1c(OCC)[nH]c2c1cc(O)c1ccccc12 | < 0.4
O=C(CCN1C(=O)S/C(=C\c2ccccc2)C1=O)Nc1ccc(S(=O)(=O)Nc2nccs2)cc1 | 7.65
CN1CCN(c2ccc([N+](=O)[O-])cc2/C=N/NC(=O)c2ccc(F)cc2)CC1 | 4.75
Cc1cccc(C)c1NC(=O)CSc1nnc(-c2ccco2)c(-c2ccco2)n1 | 1.93
COc1cc(-c2ccc(Nc3ccccc3C(=O)O)c(OC)c2)ccc1Nc1ccccc1C(=O)O | < 0.4

Structure (SMILES) | IC50 [µM]
O=c1c2ccccc2sn1-c1cc(S(=O)(=O)N2CCOCC2)ccc1N1CCOCC1 | < 0.4
Cc1ccc(NC2=C(NC(=O)c3ccccc3)C(=O)c3ccccc3C2=O)cc1Cl | 3.9
NC(=S)n1[nH]c(-c2ccc([N+](=O)[O-])cc2)c(N=Nc2cccc(Cl)c2)c1=O | 1.48
COc1ccc(Cc2nnc(NC(=O)Cc3cccs3)s2)cc1 | < 0.4
O=c1/c(=C/c2ccc(O)c([N+](=O)[O-])c2)sc2nc3ccccc3n12 | 4.26
CCC(C)(C)n1nnnc1C(c1ccc(O)c(OC)c1)N1CCc2ccccc2C1 (stereo unspecified) | < 0.4
CCn1cc(C(=O)NCc2ccc3c(c2)OCO3)c2cc(OC)c(OC)cc2c1=O | > 54
CN1CCc2cccc3c2[C@H]1Cc1ccc(O)c(O)c1-3 | < 0.4
Cc1ccc(NC(=S)NNc2ccc([N+](=O)[O-])cc2S(=O)(=O)Nc2ccccc2C(=O)O)cc1C | 1.27
CN1CCN(S(=O)(=O)c2ccc(NC(=S)NC(=O)c3ccc(Cl)cc3)cc2)CC1 | 3.59
COc1cc(/C=N/Nc2nc(C)nc3c2cnn3-c2ccccc2)ccc1O | 13.3
CC(=O)Nc1sc(N/N=C/c2ccc(O)cc2)nc1-c1ccc(C)cc1 | 3.72
CC(/C=C1\SC(=S)N(c2ccc(C(=O)O)cc2)C1=O)=C\c1ccccc1 | 2.81
Cc1nnc(Sc2cc(NCCCO)c([N+](=O)[O-])c3nonc23)s1 | 1.05
CN(C(=O)COC(=O)c1cc(-c2ccco2)nc2ccccc12)C1CCS(=O)(=O)C1 (stereo unspecified) | < 0.4
CCC1CSC(Nc2ccc(C(=O)/C=C/c3cccc(C)c3)cc2)=N1 (stereo unspecified) | < 0.4
COc1ccc(Cc2nnc(NC(=O)Cc3cccs3)s2)cc1OC | 1.05
CN(C)c1ncc(C2=C(Cl)C(=O)C(N3CCCC3)=C(Cl)C2=O)s1 | < 0.4
COc1ccc(/C=N/NC(=O)c2cc(O)c(O)c(O)c2)cc1Cn1cc([N+](=O)[O-])cn1 | < 0.4
COc1ccc(-n2nc3cc(C)c(N)c(Br)c3n2)cc1 | 2.86
Cc1ccc(-c2c3c([nH]c(=S)c2C#N)CCCC3)o1 | 1.17
CC1=C(C#N)C(=O)N(C2CCS(=O)(=O)C2)C(=O)/C1=C\c1ccc(C)o1 (stereo unspecified) | < 0.4

Structure (SMILES) | IC50 [µM]
COC/C=C/C1=CC2=CC(=O)C(C)(OC(=O)c3ccco3)C(=O)C2=CO1 (stereo unspecified) | 2.78
O=C(N/N=C\C=C\c1ccco1)c1cc(-c2ccc3ccccc3c2)n[nH]1 | 2.11
O=C1C(=Cc2ccc(Br)o2)C(=O)c2ccccc21 | < 0.4
Cn1cc(C(=O)N/N=C/c2ccc([N+](=O)[O-])cc2)c2ccccc21 | 3.04
Cc1ccc2nc(N3C(=O)C(O)=C(C(=O)c4cc5ccccc5o4)C3c3cccs3)sc2c1 (stereo unspecified) | 1.22
[O-][n+]1onc2c1CCC(=N/O)/C2=N\Nc1ccccc1 | 1.06
Cc1ccc(S(=O)(=O)Nc2ccc(N(C)C)cc2)cc1 | > 54
CCCCNC(=O)c1ccc2nc(-c3ccco3)c(-c3ccco3)nc2c1 | < 0.4
CC1CCN(C(c2ccc(N(C)C)cc2)c2nnnn2C(C)(C)C)CC1 (stereo unspecified) | 12.5
CCc1ccc(-n2cccc2/C=C2/C(=N)N3C(=NC2=O)SN=C3S(C)(=O)=O)cc1 | 4.43
Oc1ccc(/C=N/NC(=S)Nc2cccnc2)c(O)c1O | < 0.4
Cc1ccc(Cn2c(=N)c(C(=O)NCc3ccco3)cc3c(=O)n4ccccc4nc32)cc1 | 3.6
COc1ccc2[nH]c3c4c(ccc3c2c1)C(=O)C=CC4=O | < 0.4
O=C1CC(c2ccc(O)c(O)c2)Oc2c1ccc(O)c2O (stereo unspecified) | 2.46
COCCn1nnnc1C(c1ccc(O)c(OC)c1)N1CCc2ccccc2C1 (stereo unspecified) | < 0.4
Nc1cc(C(=O)O)c(N)c2c1C(=O)c1ccccc1C2=O | < 0.4
Nc1c(C(=O)NC2CC2)sc2nc3c(c(-c4ccco4)c12)CC/C3=C/c1ccco1 | < 0.4
CC(=O)N1CCc2cc(S(=O)(=O)NC(Cc3ccccc3)C(=O)NC3CCCCCC3)ccc21 (stereo unspecified) | > 54
Cc1sc(-n2c(C)cc(/C=C3\SC(=S)NC3=O)c2C)c(C#N)c1C | 4.07
COc1ccccc1NC(=O)c1cc2cc(Br)ccc2cc1O | 2.11
COc1ccc(C(CC(=O)N2CCCC2)c2c(OC)cc(OC)c3c(-c4ccccc4)cc(=O)oc23)cc1 (stereo unspecified) | 3.89
Cn1c(SCC(=O)Nc2ccc3nc(SCC(=O)N4CCCC4)sc3c2)nnc1-c1ccc(N)cc1 | 0.688

Structure (SMILES) | IC50 [µM]
COc1ccccc1CNC(=O)COC(=O)c1cc(-c2ccco2)nc2ccccc12 | 1.8
Cc1ccc(-c2cc(C(=O)NCCCn3ccnc3)c3cc(Br)ccc3n2)o1 | > 54
COc1ccccc1Nc1nc(-c2sc(NC(=O)c3ccc([N+](=O)[O-])cc3)nc2C)cs1 | < 0.4
CCOc1ccc(C(=O)Nc2cc(NC(=O)c3ccc(OCC)c(Cl)c3)cc(C(=O)O)c2)cc1Cl | 16.5
Cc1ccc(C2=NC(=O)/C(=C/c3cc(O)c(O)c(Br)c3)S2)cc1 | < 0.4
N#C/C(=C(/O)c1ccc(-c2cccc([N+](=O)[O-])c2)o1)c1nc2ccccc2s1 | 5.71
COc1cc(/C=N/Nc2nnc3c(n2)[nH]c2ccccc23)ccc1O | 5.83
COc1ccc(NC(=O)CN2C(=O)/C(=C3\SC(=S)N(C4CCS(=O)(=O)C4)C3=O)c3ccccc32)cc1 (stereo unspecified) | 2.54
CCOC(=O)CC1=CSC2=NS(=O)(=O)CCN12 | > 54
CCOC(=O)CSc1nnc2n1C(C)(C)Cc1ccccc1-2 | > 54
O=C(O)c1cc(N2N=C(C(F)(F)F)/C(=C/C=C/c3ccco3)C2=O)ccc1Cl | < 0.4
CC12CN3CC(C)(CN(C1)C3c1ccccc1Cl)C2O (stereo unspecified) | > 54
CC[C@H](C)NC(=O)c1ccc(Cn2c(=S)[nH]c3c([nH]c4ccc(OC)cc43)c2=O)cc1 | 6.17
Cc1ccc(NC(=O)Cn2c(O)c(N=NC(=O)c3cc4ccccc4cc3O)c3ccccc32)cc1 | 2.98
COc1cccc(-n2c(SCc3cc(=O)oc4cc(O)c(O)cc34)nc3ccccc3c2=O)c1 | 2.18
CC1Oc2cc3c(-c4c(O)cc(O)c5c(O)c6c(cc45)OC(C)C(C)C6=O)c(O)cc(O)c3c(O)c2C(=O)C1C (stereo unspecified) | < 0.4
CCOC(=O)C1CCN(C(=O)Nc2ccc3nc(-c4ccco4)c(-c4ccco4)nc3c2)CC1 | 0.932
Cc1nc2c(c(=O)n1CCC1=CCCCC1)c1nc3ccccc3nc1n2/N=C/c1ccco1 | 4.44
